Experimental data published in ChEMBL document CHEMBL1147220, “Divinatorins A-C, new neoclerodane diterpenoids from the controlled sage Salvia divinorum” (2003).
In brackets after ≈: the same amount, converted by molar mass. Activity calls are given as the source filed them. No cut-off for these calls is given here.

Experiments:
Bacillus subtilis [1] = experiment: Antibacterial activity against Bacillus subtilis ATCC 6633 by microdilution method; type: functional
Escherichia coli [2] = experiment: Antibacterial activity against Escherichia coli ATCC 25922 at 100 ug/mL by microdilution method; type: functional, organism-based
Staphylococcus aureus [3] = experiment: Antibacterial activity against Staphylococcus aureus ATCC 29213 at 100 ug/mL by microdilution method; type: functional, organism-based
Candida albicans [4] = experiment: Antifungal activity against Candida albicans ATCC 90028 at 100 ug/mL by microdilution method; type: functional, organism-based
Escherichia coli [5] = experiment: Antibacterial activity against Escherichia coli ATCC 25922 at 100 ug/disk by disk diffusion method; type: functional, organism-based
Staphylococcus aureus [6] = experiment: Antibacterial activity against Staphylococcus aureus ATCC 29213 at 100 ug/disk by disk diffusion method; type: functional, organism-based
Bacillus subtilis [7] = experiment: Antibacterial activity against Bacillus subtilis ATCC 6633 at 100 ug/disk by disk diffusion method; type: functional
Candida albicans [8] = experiment: Antifungal activity against Candida albicans ATCC 90028 at 100 ug/disk by disk diffusion method; type: functional, organism-based
Bacillus subtilis [9] = experiment: Antibacterial activity against Bacillus subtilis ATCC 6633 at 100 ug/mL by microdilution method; type: functional, organism-based
Staphylococcus aureus [10] = experiment: Antibacterial activity against Staphylococcus aureus ATCC 29213 by microdilution method; type: functional

C[C@@H]1CC[C@@]2(C)C(C(=O)O)=CCC[C@@H]2[C@@]1(C)CCc1ccoc1
MIC (Bacillus subtilis [1]): 0.78 µg/mL (≈ 2.46 µM)

COC(=O)C1=CC[C@H](O)[C@@H]2[C@@](C)(CCc3ccoc3)[C@H](CO)CC[C@@]12C
Activity (Escherichia coli [2]): inactive | Activity (Staphylococcus aureus [3]): inactive | Activity (Candida albicans [4]): inactive | Activity (Escherichia coli [5]): inactive | Activity (Staphylococcus aureus [6]): inactive | Activity (Bacillus subtilis [7]): inactive | Activity (Candida albicans [8]): inactive | Activity (Bacillus subtilis [9]): inactive

CC(=O)OC[C@@H]1CC[C@@]2(C)C(C(=O)O)=CCC[C@@H]2[C@@]1(C)CCc1ccoc1
Activity (Escherichia coli [2]): inactive | Activity (Staphylococcus aureus [3]): inactive | Activity (Candida albicans [4]): inactive | Activity (Escherichia coli [5]): inactive | Activity (Staphylococcus aureus [6]): inactive | Activity (Bacillus subtilis [7]): inactive | Activity (Candida albicans [8]): inactive | Activity (Bacillus subtilis [9]): inactive

C[C@H]1CC[C@]2(C)C(C(=O)O)=CCC[C@H]2[C@]1(C)CCc1ccoc1
zone of inhibition at 100 µg/disc (Bacillus subtilis [7]; read-out: IZ): 10 mm | MIC (Staphylococcus aureus [10]): 25 µg/mL (≈ 79 µM) | MIC (Bacillus subtilis [1]): 12.5 µg/mL (≈ 39.5 µM)

C[C@@H]1CC[C@@]2(C)C(C(=O)O)=CC[C@H](O)[C@@H]2[C@@]1(C)CCc1ccoc1
Activity (Escherichia coli [2]): inactive | Activity (Staphylococcus aureus [3]): inactive | Activity (Candida albicans [4]): inactive | Activity (Escherichia coli [5]): inactive | Activity (Staphylococcus aureus [6]): inactive | Activity (Bacillus subtilis [7]): inactive | Activity (Candida albicans [8]): inactive | Activity (Bacillus subtilis [9]): inactive
